Substitutions are numbered along the chain they refer to. “And” between values parts separate entries of the source, which are not always exact repeats. Equal values may be shown once. Read-outs that look alike come from different tables or passages of the source.
Key:
Assay type in all cases: cell-based
C3aR M106^3.36A = molecular target: T1, C3aR M106^3.36A (Homo sapiens, UniProt Q16581, M106A); test: GloSensor-based cAMP assay, C3aR mutant M106A
T1 construct: expressed in transfected cells; host or cells: HEK293T
T1 sequence (Q16581 1-482 M106A): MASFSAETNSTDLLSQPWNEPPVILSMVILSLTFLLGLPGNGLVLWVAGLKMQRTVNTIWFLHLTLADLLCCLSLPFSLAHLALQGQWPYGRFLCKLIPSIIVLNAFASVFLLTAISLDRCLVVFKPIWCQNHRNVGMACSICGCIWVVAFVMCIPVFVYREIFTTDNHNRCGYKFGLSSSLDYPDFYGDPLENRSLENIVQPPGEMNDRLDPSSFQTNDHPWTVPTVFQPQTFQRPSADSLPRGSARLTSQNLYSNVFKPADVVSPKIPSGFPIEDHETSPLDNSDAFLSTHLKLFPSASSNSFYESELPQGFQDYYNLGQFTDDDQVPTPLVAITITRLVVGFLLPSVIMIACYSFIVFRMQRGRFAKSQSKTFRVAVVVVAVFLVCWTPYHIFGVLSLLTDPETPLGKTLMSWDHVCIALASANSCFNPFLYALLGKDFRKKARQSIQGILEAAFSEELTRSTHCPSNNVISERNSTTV
Experimental: (§1) HEK293T cells were seeded on 6-well plates (NEST) and transfected with pGlosensor™-22F plasmids (Promega) and pcDNA3.1 plasmids encoding C3aR or its mutants an with N-terminal FLAG tag. After 48 h, cells were detached with Accutase solution (Sigma-Aldrich) and washed with PBS, and resuspended in assay buffer (CO2-independent medium with 0.5 mg mL^−1D-luciferin). 100,000–200,000 cells were seeded on 96-well white bottom plates (SPL) and incubated at 37 °C for 45 min followed by 45 min incubation at room temperature. After 90 min of incubation, basal luminescence signals were recorded. In total, 25 μl of test ligand with various concentrations and 1 μM Forskolin (Sigma-Aldrich) were treated to the cells and luminescence signals were measured by Tristar 2 LB 942 multimode reader (Berthold). […] Relative luminescence unit (%) was calculated with the signal of wells treated with vehicle as 0% and the signal of wells treated with 1 μM Forskolin as 100% (DiRaddo et al, [2014]). Nonlinear regression was performed using a three-parameter logistic equation.

C3aR H418^7.36A = molecular target: T2, C3aR H418^7.36A (Homo sapiens, UniProt Q16581, H418A); test: GloSensor-based cAMP assay, C3aR mutant H418A
T2 construct: expressed in transfected cells; host or cells: HEK293T
T2 sequence (Q16581 1-482 H418A): T1 sequence (Q16581 1-482 M106A) with A106M, H418A
Experimental: as §1

C3aR Y393^6.51A = molecular target: T3, C3aR Y393^6.51A (Homo sapiens, UniProt Q16581, Y393A); test: GloSensor-based cAMP assay, C3aR mutant Y393A
T3 construct: expressed in transfected cells; host or cells: HEK293T
T3 sequence (Q16581 1-482 Y393A): T1 sequence (Q16581 1-482 M106A) with A106M, Y393A
Experimental: as §1

C3aR = C3aR (Homo sapiens, UniProt Q16581); test: Gi recruitment BRET assay (C3aR-eYFP / Gαi-Rluc8, HEK293T); conditions: for ΔBRET (ligand-vehicle): individual replicates
Chain of C3aR (Q16581 whole entry): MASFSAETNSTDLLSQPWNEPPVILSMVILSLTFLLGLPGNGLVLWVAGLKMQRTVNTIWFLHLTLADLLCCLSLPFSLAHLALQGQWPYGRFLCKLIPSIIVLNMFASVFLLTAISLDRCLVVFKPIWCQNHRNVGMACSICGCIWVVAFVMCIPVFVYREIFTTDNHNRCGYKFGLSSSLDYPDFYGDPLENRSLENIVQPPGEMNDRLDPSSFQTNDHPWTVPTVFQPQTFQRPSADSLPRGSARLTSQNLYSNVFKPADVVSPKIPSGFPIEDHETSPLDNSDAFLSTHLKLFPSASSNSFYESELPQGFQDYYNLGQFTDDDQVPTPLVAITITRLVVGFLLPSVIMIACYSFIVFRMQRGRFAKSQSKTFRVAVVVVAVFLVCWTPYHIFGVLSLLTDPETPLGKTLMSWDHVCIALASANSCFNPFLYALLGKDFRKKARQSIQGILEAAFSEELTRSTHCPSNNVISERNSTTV
Chain of C3aR (P63096 2-354 partner limits assumed): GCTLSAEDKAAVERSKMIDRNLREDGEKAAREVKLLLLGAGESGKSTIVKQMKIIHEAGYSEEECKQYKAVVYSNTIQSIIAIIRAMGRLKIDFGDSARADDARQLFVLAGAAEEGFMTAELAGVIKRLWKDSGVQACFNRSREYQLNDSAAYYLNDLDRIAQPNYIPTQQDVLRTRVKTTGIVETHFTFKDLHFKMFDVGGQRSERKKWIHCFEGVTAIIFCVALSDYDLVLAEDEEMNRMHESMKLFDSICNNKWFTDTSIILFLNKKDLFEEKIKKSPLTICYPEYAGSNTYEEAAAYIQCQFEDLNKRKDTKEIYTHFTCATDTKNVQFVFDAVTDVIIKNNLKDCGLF
Chain of C3aR (P62873 2-340 partner limits assumed): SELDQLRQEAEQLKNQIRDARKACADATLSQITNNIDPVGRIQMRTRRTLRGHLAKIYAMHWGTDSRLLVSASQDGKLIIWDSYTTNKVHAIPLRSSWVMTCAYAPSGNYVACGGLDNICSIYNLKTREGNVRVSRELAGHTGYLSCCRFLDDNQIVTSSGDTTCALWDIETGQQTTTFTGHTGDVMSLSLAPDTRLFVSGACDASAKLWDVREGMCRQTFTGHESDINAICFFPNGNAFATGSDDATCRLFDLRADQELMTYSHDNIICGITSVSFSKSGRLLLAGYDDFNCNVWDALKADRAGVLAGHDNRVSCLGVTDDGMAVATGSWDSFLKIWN
Chain of C3aR (P59768 2-68 partner limits assumed): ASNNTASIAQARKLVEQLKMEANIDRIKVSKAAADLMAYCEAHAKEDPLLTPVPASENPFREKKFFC
Experimental: HEK293T cells were seeded on 6-well plates (NEST) and transfected with pcDNA3.1 plasmids encoding C3aR-eYFP, Gαi-Rluc8, Gβ1, and Gγ2 with a ratio of 5:1:1:1. After 48 h, cells were harvested and resuspended with in PBS. Cells were treated with test ligand with various concentrations and seeded on 96-well white bottom plates (SPL). After 3 min incubation at 37 °C, coelenterazine h (Nanolight) was added with a final concentration of 10 μM. Luminescence and fluorescence were measured using a Tristar 2 LB 942 multimode reader (Berthold).

[1] = Dunnett's multiple comparisons test, WT minus mutant

## Cc1cc(C(c2ccc(Cl)cc2)c2ccc(Cl)cc2)sc1C(=O)N[C@@H](CCCNC(=N)N)C(=O)O [JR14a, reference compound]
C3aR M106^3.36A; [1]
  Mean Diff. of pIC50, WT vs. M106A: -0.207
C3aR M106^3.36A; IC50, M106^3.36A, dose-response plot
  IC50: 3.24 nM
C3aR M106^3.36A; M106^3.36A relative to WT C3aR
  ΔpIC50 ± SE of Diff.: 0.21 ± 0.09
C3aR M106^3.36A; pIC50 (Replicate), M106^3.36A, individual replicates
  IC50: 3.63 nM and 7.41 nM and 1.29 nM
C3aR H418^7.36A; [1]
  Mean Diff. of pIC50, WT vs. H418A: -0.145
C3aR H418^7.36A; H418^7.36A relative to WT C3aR
  ΔpIC50 ± SE of Diff.: 0.14 ± 0.08
C3aR H418^7.36A; H418^7.36A, mean of independent experiments, read-out: pIC50 ± SEM (Mean) (converted)
  IC50: 2.51 nM
C3aR H418^7.36A; IC50, H418^7.36A, dose-response plot
  IC50: 2.56 nM
C3aR H418^7.36A; pIC50 (Replicate), H418^7.36A, individual replicates
  IC50: 2.04 nM and 4.07 nM and 4.79 nM and 0.977 nM
C3aR Y393^6.51A; IC50, Y393^6.51A, dose-response plot
  IC50: 312 nM
C3aR Y393^6.51A; Y393A, Log[JR14a (M)] -6, single replicates, read-out: cAMP response (% Forskolin)
  remaining activity at 1 µM: 21.8%
C3aR Y393^6.51A; Y393A, Log[JR14a (M)] -7, single replicates, read-out: cAMP response (% Forskolin)
  remaining activity at 0.1 µM: 72.2%
C3aR Y393^6.51A; Y393A, Log[JR14a (M)] -8, single replicates, read-out: cAMP response (% Forskolin)
  remaining activity at 0.01 µM: 96.3%
C3aR Y393^6.51A; Y393A, Log[JR14a (M)] -10, single replicates, read-out: cAMP response (% Forskolin)
  remaining activity at 0.0001 µM: 94.3%
C3aR Y393^6.51A; Y393A, Log[JR14a (M)] -11, single replicates, read-out: cAMP response (% Forskolin)
  remaining activity at 10 pM: 93.5%
C3aR Y393^6.51A; pIC50 (Replicate), Y393^6.51A, individual replicates
  IC50: 309 nM and 398 nM and 263 nM
C3aR Y393^6.51A; pIC50 ± SEM (Mean), Y393^6.51A, mean of independent experiments
  IC50: 316 nM
C3aR; Log[ligand (M)] -6
  ΔBRET (ligand-vehicle): 0.012 and 0.008 and 0.015 and 0.018
C3aR; Log[ligand (M)] -7
  ΔBRET (ligand-vehicle): 0.005 and 0.015 and 0.017
C3aR; Log[ligand (M)] -8
  ΔBRET (ligand-vehicle): 0.004 and 0.00244 and 0.012 and 0.018
C3aR; Log[ligand (M)] -9
  ΔBRET (ligand-vehicle): 0.002 and -0.000881 and 0.00951 and 0.012
C3aR; Log[ligand (M)] -10
  ΔBRET (ligand-vehicle): 0.00084 and -0.0022 and 0.006 and 0.009
C3aR; Log[ligand (M)] -11
  ΔBRET (ligand-vehicle): 0.001 and -0.004 and 0.005 and 0.010
C3aR; Log[ligand (M)] -12
  ΔBRET (ligand-vehicle): -6.28e-5 and 0.00465 and 0.004
C3aR; dose-dependent increase in BRET ratio, read-out: EC50
  EC50: 5 nM
C3aR; pEC50 ± SEM, Gi recruitment to C3aR, Appendix Table S1A
  EC50: 4.57 nM
C3aR; span of ΔBRET curve, Figure EV1A numerical data
  Span Value: 0.010

Source: paper PMC12084609, “Structural insights into small-molecule agonist recognition and activation of complement receptor C3aR” (The EMBO Journal, 2025)
